The source of these data is patent US20240374763A1, “DIAGNOSIS AND MONITORING USING EXTRADOMAIN-B FIBRONECTIN TARGETED PROBES” (Case Western Reserve University, priority 2020, published 2024).

Data set [1] concerns PC3 tumors. The experiment in a line: MRMI with MT218, PC3 xenografts. Format: in vivo, mice. The settings on record: 0.04 mmol Gd/kg. From the text: Xenograft models were established by subcutaneous flank injections in athymic nu/nu mice for the 4 prostate cancer cells and tested with MRMI using 0.04 mmol Gd/kg of MT218.
Data set [2] has as its system Capan-1 flank tumor xenografts. The experiment in a line: MRMI of Capan-1 flank tumor xenografts. Format: in vivo, mice. On the procedure:
For flank xenograft models, 4×10^6 Capan-1 cells suspended in 100 μL of a 6 mg/mL Matrigel (Corning, Corning, NY) solution was injected subcutaneously into the flank of eight-week-old female nu/nu mice. The tumor bearing mice were imaged after tumor volumes exceeded 300 mm^3. For orthotopic intrapancreatic models, the pancreas of four-week-old female nu/nu mice were surgically exposed and 1×10^6 BxPC3-GFP-Luc or PANC-1-GFP-Luc cells suspended in 100 μL of an Matrigel solution (6 mg/mL) was injected into the pancreatic tissue. Prior to imaging, growth of tumor was verified by bioluminescence imaging with intraperitoneal injection of d-luciferin on IVIS Spectrum system (Perkin Elmer, Waltham, MA).
Flank tumor-bearing mice were anesthetized and a tail vein catheter inserted. MR image acquisition was performed on a 7T Biospin (Bruker, Billerica, MA) preclinical small animal scanner with a volume radiofrequency coil. Axial images were obtained using a multi-spin multi-echo (MSME) MRI sequence (500 ms TR, 8.1 ms TE, 900 FA, 4.50 cm×4.50 cm FOV, 1.50 mm slice thickness, 16 slices, 2 averages, 200×200 matrix, 0.0225×0.0225 cm/pixel resolution). Contrast agents were injected at a dose of 0.1 mmol/kg (100 μL) via the tail vein catheter, followed by a saline flush. Images of the tumors were acquired before contrast and at various time points after contrast administration. Gd(HP-DO3A) was used as a control.
Image files were exported and analyzed in Horus software. ROIs were drawn in the tumor, liver, kidney, and muscle. Muscle ROIs were taken from muscle, with other structures (liver, kidney, tumor) identified after comparison with published images and comparison with anatomical landmarks or bioluminescent imaging. Size of ROIs drawn for image analysis are summarized in Supplemental Table S1. The contrast-to-noise ratio of the tumor (CNR) was calculated using the following equation, where σ_noise is the standard deviation of intensities from an ROI drawn outside of the mouse body: […]

The subject of data set [3] is RKO-DR tumors. The experiment in a line: MRMI of EDB-FN with MT218, RKO-DR xenografts. Format: in vivo, mice. On the procedure: Nude athymic mice (6-week-old nu/nu females) were purchased from The Jackson Laboratory (Bar Harbor, […]) and housed in the Animal Facility at CWRU. All the animal experiments were performed according to the protocol approved by the IACUC of CWRU. For assessment of drug resistance, 2 drug-resistant and 2 non-drug-resistant models were set up. About 3-4×10^6 DLD-1, RKO, DLD1-DR, and RKO-DR cells suspended in Matrigel-PBS mixture (1:1) were subcutaneously injected in the left flanks of nude mice (100 μL per mouse, 5 mice per group×4 models=20 mice). After 9 days when the tumors reached 100-200 mm3, MRMI was performed on the 4 xenograft models with 40 μmol/kg dose of MT218. The animals were then euthanized, and the tumors were harvested for post-mortem histology and IHC.
MT218 was synthesized as previously described. Ayat, N. R., et al., ACS Med Chem Lett, 2018. 9(7): p. 730-735. Briefly, click reaction between alkynyl-ZD2 and N3-Gd(HP-DO3A) was performed in the presence of CuSO4 and ascorbate at room temperature, followed by FLASH chromatography purification and validation of MT218 by MALDI-TOF mass spectrometry (m.w. 1443). For assessment of drug resistance and therapeutic monitoring, MRMI was performed in a 3T MRS 3000 scanner (MR Solutions, Surrey, UK) with a mouse short quad coil. The mice were anesthetized with isofluorane and tail vein catheter was setup. T1-weighted MR images were obtained before (pre-contrast) and 25 min after injection (post-contrast) of 40 μmol/kg dose of MT218 [ZD2-N3—Gd(HP-DO3A)]. The following two sequences were used with respiratory gating: axial fast spin echo (FSE) (TR=305 ms, TE=11 ms, FA=90°, FOV=40 mm×40 mm, slice thickness=1 mm, slice number=15, Nav=2, matrix=256×256) and coronal FSE (TR=305 ms, TE=11 ms, FA=90°, FOV=90 mm×90 mm, slice thickness=1 mm, slice number=20, Nav=1, matrix=248×512). […] Contrast-to-noise ratios (CNRs) were calculated as (mean tumor intensity—mean muscle intensity)/standard deviation of noise. […]

Data set [4] in a line: Relaxivity measurements. It is filed as physicochemical. On the procedure: The T1 and T2 values of MT218 and Gd(HP-DO3A) solutions were determined using a 3T MRS 3000 scanner (MR Solutions, Guildford, UK). Solutions of MT218 were prepared at concentrations of 0, 0.25, 0.5, 1, and 2 mM in DPBS buffer (Gibco, Gaithersburg, MD). T1 values were measured using an inversion recovery-fast low angle shot (IR-FLASH) sequence (i=10 ms, TE=4 ms, FA=8°, echoes/frames=128, FOV=40 mm×40 mm, slice thickness =2 mm, number of averages=1, time delay=4000 ms, sample period=200, matrix=256×128). T2 values were obtained using a multi-echo multi-slice (MEMS) sequence (TE=15 ms, […], echoes=10, FOV: 40 mm×40 mm, slice thickness=1 mm, number of averages=1, matrix=256×192). The r1 and r2 relaxivities were calculated from the slopes of 1/T1 and 1/T2 vs. Gd concentration plots, respectively.

Where [5] appears, read: RKO-DR over RKO tumors, 40 μmol/kg MT218.

No end group written: not given here.

Consider “ZD2-N3-Gd(HP-DO3A) (TVRTSAD; also: conjugated to Gd(HP-DO3A) by click reaction of alkynyl-ZD2 with N3-Gd(HP-DO3A), residue of attachment not given here, Gd complex) [MT218, EDB-FN-targeted MRI contrast agent; ZD2 peptide conjugated to the clinical macrocyclic agent Gd(HP-DO3A)]”, for which the “CNR of PC3 tumors relative to PC3-DR tumors” value in data set [1] stood at 3.3 fold. Moreover, the “CNR over the pre-contrast” value in data set [1] (PC3 tumors, 20 min post-injection) worked out at 5 fold. In addition, the “increase of contrast to noise ratio (CNR)” value in data set [2] (0.1 mmol/kg, MT218 at 15 minutes post-injection, maintained at least 35 minutes, Gd(HP-DO3A) for the duration of the experiment) is given as 4.84 fold. Also, in data set [2] (Capan-1 flank), the “CNR compared to the clinical agent Gd(HP-DO3A)” value was 273 % CNR of control. Further, in data set [3] (setting [5]), the “higher CNRs over the non-resistant tumors” value is listed as 1.8 fold and the “increase in CNR over the non-resistant tumors” value worked out at 84%. The “higher CNRs over pre-contrast” value in data set [3] (RKO-DR tumors, 40 μmol/kg MT218, 25 min post-injection) worked out at 2.6 fold. In data set [4] (at 3T (Example 1)), this substance displayed a T1 relaxivity of 6.13 mM⁻¹ s⁻¹. In data set [4] (at 3 T, DPBS buffer), this substance registered a T1 relaxivity of 6.07 ± 1.13 mM⁻¹ s⁻¹ and a T2 relaxivity of 8.20 ± 0.18 s⁻¹ mM⁻¹.
